These are literature values, as cited in US5304296A, “Glass pH electrodes” (National Power PLC, priority 1990, dated 1994).

`NC(=O)CN(CC(=O)O)CC(=O)O` [ADA, N-(2-acetamido)iminodiacetic acid]: the “pKa at 20° C.” value was 6.62.

As a reminder, the pKa is the pH at which an ionisable group is half protonated.
